Source: ChEMBL document CHEMBL4420076, “Amylin and calcitonin receptor agonist” (2017)
Numbered stars: 1 amine (or outer) side, 2 acyl side, 3 side chain; on linkers, the order of the positions; unused ones are H or OH. Peptide text beside a SMILES is read from it. * marks the point of attachment. C20 diacid = O=C(O)CCCCCCCCCCCCCCCCCCC(=O)*; γGlu = O=C(O)[C@H](CCC(=O)[*:2])N[*:1]; C14 diacid = O=C(O)CCCCCCCCCCCCC(=O)*

Legend:
[1] = molecular target: T1, Amylin receptor AMY3; CALCR/RAMP3 (Homo sapiens, UniProt O60896+P30988); test: Agonist activity at human amylin receptor expressed in BHK570 cells co-expressing RAMP3 assessed as increase in intracellular cAMP concentration incubated for 3 hrs in presence of 10% FBS by CRE luciferase reporter gene assay; assay type: functional, cell-based
T1 sequence (P30988 whole entry): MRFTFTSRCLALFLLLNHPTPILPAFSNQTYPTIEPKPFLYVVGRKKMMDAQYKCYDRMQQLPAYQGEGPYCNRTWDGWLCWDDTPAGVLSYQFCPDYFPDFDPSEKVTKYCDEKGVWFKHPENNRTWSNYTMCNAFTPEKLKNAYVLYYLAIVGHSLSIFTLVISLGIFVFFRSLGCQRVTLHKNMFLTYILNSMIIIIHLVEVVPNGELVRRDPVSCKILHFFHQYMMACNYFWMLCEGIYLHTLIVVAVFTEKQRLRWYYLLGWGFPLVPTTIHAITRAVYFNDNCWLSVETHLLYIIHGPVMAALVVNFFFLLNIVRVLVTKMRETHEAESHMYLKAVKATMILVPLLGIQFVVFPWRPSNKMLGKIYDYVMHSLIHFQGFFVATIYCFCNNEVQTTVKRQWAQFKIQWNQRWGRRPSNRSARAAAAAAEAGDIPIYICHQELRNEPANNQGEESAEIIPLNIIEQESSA
T1 sequence (O60896 whole entry): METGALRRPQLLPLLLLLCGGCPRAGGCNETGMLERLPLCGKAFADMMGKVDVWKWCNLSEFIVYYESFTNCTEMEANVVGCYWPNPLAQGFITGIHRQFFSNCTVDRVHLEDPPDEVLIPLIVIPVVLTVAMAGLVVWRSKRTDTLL

[2] = Solubility in 100 mM bistrispropane buffer at pH 6.5 incubated for 18 hrs by UPLC analysis; assay type: physicochemical
[3] = molecular target: T1, Amylin receptor AMY3; CALCR/RAMP3; test: Displacement of [125I]-labeled rat amylin from human amylin receptor expressed in BHK tkts13 whole cells co-expressing RAMP3 incubated for 60 mins by scintillation proximity assay; assay type: cell-based
[4] = Solubility in 100 mM bistrispropane buffer at pH 8.0 incubated for 18 hrs by UPLC analysis; assay type: physicochemical
Rattus norvegicus [5] = test: Reduction in food intake in Sprague-Dawley rat at 3 nmol/kg measured 0 to 24 hrs post dose relative to control; assay type: functional; design: scale not given: the % may be the effect or the level left
[6] = molecular target: T2, Amylin receptor AMY3; CALCR/RAMP3 (Rattus norvegicus, UniProt P32214+Q9JJ73); test: Displacement of [125I]-labeled rat amylin from rat amylin receptor expressed in BHK tkts13 cell membranes co-expressing RAMP3 incubated for 120 mins by scintillation proximity assay
T2 sequence (P32214 whole entry): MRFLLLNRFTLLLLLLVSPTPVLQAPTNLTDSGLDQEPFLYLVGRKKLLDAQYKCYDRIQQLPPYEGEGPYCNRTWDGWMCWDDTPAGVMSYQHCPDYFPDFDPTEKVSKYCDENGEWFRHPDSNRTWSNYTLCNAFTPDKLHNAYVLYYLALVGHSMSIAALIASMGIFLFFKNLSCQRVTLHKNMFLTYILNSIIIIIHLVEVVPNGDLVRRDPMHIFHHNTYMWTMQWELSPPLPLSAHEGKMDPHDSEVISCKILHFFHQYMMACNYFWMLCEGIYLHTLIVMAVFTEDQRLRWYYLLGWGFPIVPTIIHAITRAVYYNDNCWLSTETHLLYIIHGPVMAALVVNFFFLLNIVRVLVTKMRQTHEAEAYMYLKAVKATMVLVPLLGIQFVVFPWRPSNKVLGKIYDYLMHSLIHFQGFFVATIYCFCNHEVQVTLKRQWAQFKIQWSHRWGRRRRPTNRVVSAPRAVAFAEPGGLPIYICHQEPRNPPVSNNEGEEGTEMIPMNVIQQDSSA
T2 sequence (Q9JJ73 whole entry): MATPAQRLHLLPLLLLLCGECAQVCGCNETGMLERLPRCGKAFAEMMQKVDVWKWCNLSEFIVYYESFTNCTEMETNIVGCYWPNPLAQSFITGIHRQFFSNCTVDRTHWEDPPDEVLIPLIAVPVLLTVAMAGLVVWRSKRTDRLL

[7] = Solubility in 100 mM bistrispropane buffer at pH 7.5 incubated for 18 hrs by UPLC analysis; assay type: physicochemical
[8] = Solubility in 100 mM glycylglycine buffer at pH 4.0 incubated for 18 hrs by UPLC analysis; assay type: physicochemical
[9] = Solubility in 100 mM bistrispropane buffer at pH 6.0 incubated for 18 hrs by UPLC analysis; assay type: physicochemical
Calcitonin receptor [10] = molecular target: T3, Calcitonin receptor (Homo sapiens, UniProt P30988); test: Agonist activity at human calcitonin receptor expressed in BHK570 cells assessed as increase in intracellular cAMP concentration incubated for 3 hrs in presence of 10% FBS by CRE luciferase reporter gene assay; assay type: functional, cell-based
T3 sequence (P30988 whole entry): T1 sequence (P30988 whole entry)

[11] = Stability in pH 7.5 buffer assessed as compound recovery at 1 uM by Thioflavin T based fluorescence assay; assay type: physicochemical; settings: read-out: Drug recovery
[12] = Stability in pH 7.5 buffer assessed as lag time for fibril formation at 1 uM by Thioflavin T based fluorescence assay; assay type: physicochemical; settings: pH 7.5, 1 µM
Calcitonin receptor [13] = molecular target: T3, Calcitonin receptor; test: Agonist activity at human calcitonin receptor expressed in BHK570 cells assessed as increase in intracellular cAMP concentration incubated for 3 hrs in absence of albumin by CRE luciferase reporter gene assay; assay type: functional, cell-based
[14] = Solubility in 100 mM glycylglycine buffer at pH 3.0 incubated for 18 hrs by UPLC analysis; assay type: physicochemical
Rattus norvegicus [15] = test: Reduction in food intake in Sprague-Dawley rat at 3 nmol/kg measured 24 to 48 hrs post dose relative to control; assay type: functional; design: scale not given: the % may be the effect or the level left
[16] = Solubility in 100 mM bistrispropane buffer at pH 7.0 incubated for 18 hrs by UPLC analysis; assay type: physicochemical
[17] = molecular target: T1, Amylin receptor AMY3; CALCR/RAMP3; test: Agonist activity at human amylin receptor expressed in BHK570 cells co-expressing RAMP3 assessed as increase in intracellular cAMP concentration incubated for 3 hrs in absence of albumin by CRE luciferase reporter gene assay; assay type: functional, cell-based
Calcitonin receptor [18] = molecular target: T3, Calcitonin receptor; test: Displacement of [125I]-labeled human calcitonin from human calcitonin receptor expressed in BHK tkts13 cell membranes incubated for 1 hr by scintillation proximity assay
[19] = Solubility in 100 mM glycylglycine buffer at pH 5.0 incubated for 18 hrs by UPLC analysis; assay type: physicochemical

Row | EC50 [1] [nM] | solubility at 18 h [2] [µM] | IC50 [3] [nM] | solubility at 18 h [4] [µM] | IC50 [6] [nM] | solubility at 18 h [7] [µM] | solubility at 18 h [8] [µM] | solubility at 18 h [9] [µM] | EC50 (Calcitonin receptor [10]) [nM] | remaining at 1 µM [11] [%] | Time [12] [h] | EC50 (Calcitonin receptor [13]) [nM] | solubility at 18 h [14] [µM] | solubility at 18 h [16] [µM] | EC50 [17] [nM] | IC50 (Calcitonin receptor [18]) [nM] | solubility at 18 h [19] [µM] | SMILES | Activity (Rattus norvegicus [5]) [%] | Activity (Rattus norvegicus [15]) [%]
1 | 0.08 | ≥ 200 | 0.801 | ≥ 200 | 0.357 | ≥ 200 | ≥ 200 | ≥ 200 | 0.038 | 100 | > 45 | 0.022 | ≥ 200 | ≥ 200 | 0.05 |  |  | CC(C)C[C@H](NC(=O)CNC(=O)[C@H](CO)NC(=O)[C@H](C)NC(=O)COCCOCCNC(=O)COCCOCCNC(=O)CC[C@H](NC(=O)CCCCCCCCCCCCCCCCC(=O)O)C(=O)O)C(=O)N[C@@H](CO)C(=O)N[C@H](C(=O)N[C@@H](C)C(=O)N[C@H](C(=O)N[C@@H](CC(C)C)C(=O)NCC(=O)N[C@@H](CCCNC(=N)N)C(=O)N[C@@H](CC(C)C)C(=O)N[C@@H](CO)C(=O)N[C@@H](CCC(N)=O)C(=O)N[C@@H](CCC(=O)O)C(=O)N[C@@H](CC(C)C)C(=O)N[C@@H](Cc1cnc[nH]1)C(=O)N[C@@H](CCC(=O)O)C(=O)N[C@@H](CC(C)C)C(=O)N[C@@H](CCC(N)=O)C(=O)N[C@H](C(=O)N[C@@H](Cc1ccc(O)cc1)C(=O)N1CCC[C@H]1C(=O)N[C@@H](CCCNC(=N)N)C(=O)N[C@H](C(=O)N[C@@H](CCC(=O)O)C(=O)N[C@H](C(=O)NCC(=O)N[C@@H](CO)C(=O)NCC(=O)N[C@H](C(=O)N[C@@H](Cc1ccc(O)cc1)C(N)=O)[C@@H](C)O)[C@@H](C)O)[C@@H](C)O)[C@@H](C)O)C(C)C)[C@@H](C)O | 0 | 0
2 | 0.006 | ≥ 200 |  | ≥ 200 |  | ≥ 200 | ≥ 200 | ≥ 200 | 0.004 |  |  | 0.005 | ≥ 200 | ≥ 200 | 0.007 | 0.14 | ≥ 200 | CC(C)C[C@H](NC(=O)[C@H](C)NC(=O)[C@H](C)NC(=O)[C@@H](NC(=O)[C@H](CO)NC(=O)[C@H](CC(C)C)NC(=O)[C@H](CCC(=O)O)NC(=O)[C@H](CO)NC(=O)[C@H](C)NC(=O)CCCCCCCCCCCCC(=O)O)[C@@H](C)O)C(=O)NCC(=O)N[C@@H](CCCNC(=N)N)C(=O)N[C@@H](CC(C)C)C(=O)N[C@@H](CO)C(=O)N[C@@H](C)C(=O)N[C@@H](CCC(=O)O)C(=O)N[C@@H](CC(C)C)C(=O)N[C@@H](Cc1cnc[nH]1)C(=O)N[C@@H](CCC(=O)O)C(=O)N[C@@H](CC(C)C)C(=O)N[C@@H](C)C(=O)N[C@H](C(=O)N[C@@H](CC(C)C)C(=O)N1CCC[C@H]1C(=O)N[C@@H](CCCNC(=N)N)C(=O)N[C@H](C(=O)N[C@@H](CCC(=O)O)C(=O)N[C@H](C(=O)NCC(=O)N[C@@H](CO)C(=O)NCC(=O)N[C@@H](CO)C(=O)N1CCC[C@H]1C(N)=O)[C@@H](C)O)[C@@H](C)O)[C@@H](C)O ({C14 diacid}-ASELSTAALGRLSAELHELATLPRTETGSGSP-NH2) |  | 
3 |  | ≥ 200 | 0.116 | ≥ 200 | 0.098 | ≥ 200 |  | ≥ 200 | 0.077 |  |  | 0.019 | ≥ 200 | ≥ 200 | 0.023 | 0.053 | ≥ 200 | CC(C)C[C@H](NC(=O)CNC(=O)[C@H](CO)NC(=O)[C@H](C)NC(=O)CC[C@H](NC(=O)CCCCCCCCCCCCCCCCCCC(=O)O)C(=O)O)C(=O)N[C@@H](CO)C(=O)N[C@H](C(=O)N[C@@H](C)C(=O)N[C@H](C(=O)N[C@@H](CC(C)C)C(=O)NCC(=O)N[C@@H](CCCNC(=N)N)C(=O)N[C@@H](CC(C)C)C(=O)N[C@@H](CO)C(=O)N[C@@H](CCC(N)=O)C(=O)N[C@@H](CCC(=O)O)C(=O)N[C@@H](CC(C)C)C(=O)N[C@@H](Cc1cnc[nH]1)C(=O)N[C@@H](CCC(=O)O)C(=O)N[C@@H](CC(C)C)C(=O)N[C@@H](CCC(N)=O)C(=O)N[C@H](C(=O)N[C@@H](Cc1ccc(O)cc1)C(=O)N1CCC[C@H]1C(=O)N1CCC[C@H]1C(=O)N[C@H](C(=O)N[C@@H](CCC(=O)O)C(=O)N[C@H](C(=O)NCC(=O)N[C@@H](CO)C(=O)NCC(=O)N[C@H](C(=O)N[C@@H](Cc1ccc(O)cc1)C(N)=O)[C@@H](C)O)[C@@H](C)O)[C@@H](C)O)[C@@H](C)O)[C@@H](C)O)[C@@H](C)O ({C20 diacid-γGlu}-ASGLSTATLGRLSQELHELQTYPPTETGSGTY-NH2) |  | 
4 |  | ≥ 200 | 1.48 | ≥ 200 | 0.091 | ≥ 200 |  |  | 0.142 | 90 | 8.4 | 0.04 | ≥ 200 | ≥ 200 | 0.052 |  |  | CC(C)C[C@H](NC(=O)CNC(=O)[C@H](CO)NC(=O)[C@H](C)NC(=O)CC[C@H](NC(=O)CCCCCCCCCCCCCCCCCCC(=O)O)C(=O)O)C(=O)N[C@@H](CO)C(=O)N[C@H](C(=O)N[C@@H](CC(C)C)C(=O)N[C@H](C(=O)N[C@@H](CC(C)C)C(=O)NCC(=O)N[C@@H](CCCNC(=N)N)C(=O)N[C@@H](CC(C)C)C(=O)N[C@@H](CO)C(=O)N[C@@H](CCC(N)=O)C(=O)N[C@@H](CCC(=O)O)C(=O)N[C@@H](CC(C)C)C(=O)N[C@@H](Cc1cnc[nH]1)C(=O)N[C@@H](CCC(=O)O)C(=O)N[C@@H](CC(C)C)C(=O)N[C@@H](CCC(N)=O)C(=O)N[C@H](C(=O)N[C@@H](Cc1ccc(O)cc1)C(=O)N1CCC[C@H]1C(=O)N[C@@H](CCCNC(=N)N)C(=O)N[C@H](C(=O)N[C@@H](CCC(=O)O)C(=O)N[C@H](C(=O)NCC(=O)N[C@@H](CO)C(=O)N[C@@H](CCC(N)=O)C(=O)N[C@H](C(=O)N[C@@H](Cc1ccc(O)cc1)C(N)=O)[C@@H](C)O)[C@@H](C)O)[C@@H](C)O)[C@@H](C)O)C(C)C)[C@@H](C)O ({C20 diacid-γGlu}-ASGLSTLVLGRLSQELHELQTYPRTETGSQTY-NH2) | 34 | 24
